This note sets out measurements from patent publication US5660976A, “Method for preserving a liver by perfusion with or storage in a solution containing ascorbyl tocopheryl phosphodiester” (Senju Pharmaceutical Co., Ltd., priority 1994, dated 1997).

The nature of this series: Acute toxicity (LD50) in rats. Conditions: rat, in vivo. The protocol:
The compound for use as the active ingredient in the hepatic graft preservative composition and hepatic graft preserving method of this invention is a very safe substance with an extremely low toxic potential and, as such, can be used with advantage for the purposes of this invention. [e.g. the LD50 values of L-ascorbyl DL-α-tocopheryl phosphate potassium (hereinafter referred to briefly as EPC-K)≥5 g/kg p.o. (rats) and≥100 mg/kg i.v. (rats)].

Consider `Cc1c(C)c2c(c(C)c1OP(=O)(O)OC1=C(O)[C@@H]([C@@H](O)CO)OC1=O)CCC(C)(CCCC(C)CCCC(C)CCCC(C)C)O2` (mixture of isomers) [EPC-K, L-Ascorbyl DL-α-tocopheryl phosphate potassium], for which the LD50 runs as follows: (iv, i.v. (rats)) at least 100 mg/kg; (po, p.o. (rats)) at least 5000 mg/kg.
